In patent US8288410B2, “3-substituted quinolinium and 7H-indolo[2,3-c]quinolinium salts as new antiinfectives” (Florida Agricultural and Mechanical University, priority 2008, dated 2012):
Where two headings read alike, the source gives them in different places.

Key:
[1] = system: Candida albicans ATTC 90028; assay: Antifungal susceptibility testing, Candida albicans; assay type: cell-based
Summary of the method: (§1)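 Modified NCCLS broth microdilution, samples serially diluted from 20 μg/mL top concentration, inocula per 0.5 McFarland (C. albicans in SDB or RPMI 1640; C. neoformans in SDB; A. fumigatus in YM broth or RPMI-1640 + 5% Alamar Blue). IC50 from percent growth versus concentration; MIC read visually as lowest concentration without detectable growth.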

[2] = system: Cryptococcus neoformans ATCC 90113; assay: Antifungal susceptibility testing, Cryptococcus neoformans; assay type: cell-based
Summary of the method: as §1

[3] = system: Aspergillus fumigatus ATCC 90906; assay: Antifungal susceptibility testing, Aspergillus fumigatus; assay type: cell-based; settings: for IC50: ATCC90906, Aspergillus fumigatus, read-out: A fu IC50
Summary of the method: as §1

MRSA = assay: Antibacterial susceptibility testing, MRSA; assay type: cell-based, methicillin resistant Staphylococcus aureus; settings: Staphylococcus aureus
Summary of the method: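 MRSA, sourced from the American Type Culture Collection, was tested for susceptibility with a modified National Committee for Clinical Laboratory Standards method. DMSO sample solutions were serially diluted in saline and placed in duplicate in 96 well microplates. Broth-diluted bacterial suspensions, standardized to 0.5 McFarland, brought each well to 200 μL, with the highest test concentration at 20 μg/mL.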

Vero Cells = assay: Cytotoxicity, Vero cells; assay type: cell-based
[4] = ATTC90028, Table 1, read-out: Ca IC50
[5] = ATTC90028, Table 1, read-out: Ca MFC
[6] = ATTC90028, Table 1, read-out: Ca MIC
[7] = ATCC90113, Table 1, read-out: Cn IC50
[8] = ATCC90113, Table 1, read-out: Cn MFC
[9] = ATCC90113, Table 1, read-out: Cn MIC

| IC50 [1, 4] [µg/mL] | MIC [1, 6] [µg/mL] | IC50 [2, 7] [µg/mL] | MIC [2, 9] [µg/mL] | A fu MIC [3] [µg/mL] | IC50 ([3]; Table 1) [µg/mL] | IC50 (MRSA; Table 1, read-out: MRS IC50) [µg/mL] | MIC (MRSA; Table 1, read-out: MRS MIC) [µg/mL] | melting point [°C] | SMILES | MFC [1, 5] [µg/mL] | MFC [2, 8] [µg/mL] | MFC (MRSA; Table 1, read-out: MRS MFC) [µg/mL] | TC50 Vero Cells (Vero Cells; Table 1) | other results |
| --- | --- | --- | --- | --- | --- | --- | --- | --- | --- | --- | --- | --- | --- | --- |
| > 20 | > 20 | 0.6 | 2.5 | 20 | 9 | 0.95 | 5 | 175 to 176 | FC(F)(F)c1ccccc1Sc1cc2ccccc2[n+](CCCCC[n+]2cc(Sc3ccccc3C(F)(F)F)cc3ccccc32)c1 [XYZ-IV-45] | > 20 | 20 | > 20 | NC (NC = Not toxic at 10 μg/mL) | – |
| 15 | > 20 | 0.95 | 2.5 | – | 7.5 | 0.8 | 2.5 | 167 to 168 | FC(F)(F)c1cccc(Sc2cc3ccccc3[n+](CCCCC[n+]3cc(Sc4cccc(C(F)(F)F)c4)cc4ccccc43)c2)c1 [XYZ-IV-55] | > 20 | 20 | 10 | NC (NC = Not toxic at 10 μg/mL) | – |
| – | – | – | – | 10 | – | – | – | 231 to 233 | C[n+]1cc2c(c3cc(C(F)(F)F)ccc3n2CCCCCC2CCCCC2)c2ccccc21.[I-] [JRE-4-17-1, 10-Trifluoromethyl-7-(5-cyclohexyl-pentyl)-5-methyl-7H-indolo[2,3-c]quinolin-5-ium iodide] | – | – | – | – | IC50 ([1]; ATTC90028, Table 3, read-out: Ca IC50): 3.5 µg/mL; MFC ([1]; ATTC90028, Table 3, read-out: Ca MFC): 10 µg/mL; MIC ([1]; ATTC90028, Table 3, read-out: Ca MIC): 5 µg/mL; IC50 ([2]; ATCC90113, Table 3, read-out: Cn IC50): 3 µg/mL; MFC ([2]; ATCC90113, Table 3, read-out: Cn MFC): 5 µg/mL; MIC ([2]; ATCC90113, Table 3, read-out: Cn MIC): 5 µg/mL; A fu MFC [3]: 10 µg/mL; IC50 ([3]; Table 3): 3.5 µg/mL; IC50 (MRSA; Table 3, read-out: MRSA IC50): 1.5 µg/mL; MFC (MRSA; Table 3, read-out: MRSA MFC): 5 µg/mL; MIC (MRSA; Table 3, read-out: MRSA MIC): 2.5 µg/mL; TC50 Vero Cells (Vero Cells; Table 3): >10 µg/mL |
| > 20 | > 20 | 4 | 10 | 10 | 5 | 2 | 5 | 154 to 156 | FC(F)(F)c1ccccc1Sc1cc2ccccc2[n+](CCCCC[n+]2c3ccccc3cc3[nH]c4ccccc4c32)c1 [XYZ-IV-52] | > 20 | > 20 | > 20 | NC (NC = Not toxic at 10 μg/mL) | – |
